Test results as given in patent publication US20230115335A1, “PYRAZOLE DERIVATIVES WITH ANTICANCER ACTIVITY” (BOARD OF REGENTS, THE UNIVERSITY OF TEXAS SYSTEM, priority 2021, published 2023).
Where two headings read alike, the source gives them in different places.

Experiments:
CEM cell line = experiment: DNS cytotoxicity assay, CEM; format: cell-based, human; conditions: read-out: CEM CC50
Source text: […] […] After treatment, images were acquired and analyzed to determine percentages of live/dead cells and their cytotoxicity. […] The Hs-27 non-cancerous human foreskin fibroblast cell line was used for comparison purposes.

MDA-MB231 = experiment: DNS cytotoxicity assay, MDA-MB-231; format: cell-based; conditions: Homo sapiens, 72 hr incubations, read-out: Cell Line CC50 MDA-MD-231*
Protocol: (§1) Since the non-adherent (free floating) lymphoma/leukemia cell lines divide faster than the adherent cell lines, they were incubated for a shorter period (48 h) of time with the compound.
(§2) Lymphoma/leukemia cell lines, which grow in suspension, were incubated for 48 h with the compounds. […] After treatment, images were acquired and analyzed to determine percentages of live/dead cells and their cytotoxicity. […] The Hs-27 non-cancerous human foreskin fibroblast cell line was used for comparison purposes.

[1] = DNS cytotoxicity assay, MCF10A; format: cell-based; conditions: human, MCF10A non-cancerous cells, 72 hr incubations, read-out: Cell Line CC50 MCF10A*
Protocol: as §1

[2] = DNS cytotoxicity assay, HS-27 non-cancerous fibroblast; format: cell-based; conditions: human, Hs-27 non-cancerous foreskin fibroblast cells; 72 hr incubations; non-cancerous; read-out: Cell Line CC50 HS-27*
Protocol: as §1, §2

Jurkat = experiment: DNS cytotoxicity assay, Jurkat; format: cell-based, human; conditions: Homo sapiens, Jurkat; Lymphoma-Leukemia; 48 hrs
Source text: Using the high throughput Differential Nuclear Staining (DNS) screening assay (Lema et al., Current Cellular Biochemistry 1, 1-14, 2011) 15 pyrazole compounds were synthesized and screened on the human T-cell Acute Lymphoblastic Leukemia CEM cell line (Tables 1 and 2). […] The compounds were synthesized based on a pyrazole backbone structure previously determined to have potent cytotoxic activity (FIG. 5). Several commercial and non-commercial analogues (see Table 3) have been tested and determined that the ones with highest activity have a similar structure circled in FIG. 5. […] SSK-3 has been tested on a few cancer cell lines (see Table 4) and also found to induce programmed cell death via a variety of biochemical assays. […] Since the non-adherent (free floating) lymphoma/leukemia cell lines divide faster than the adherent cell lines, they were incubated for a shorter period (48 h) of time with the compound.
SSK-3 has potent cytotoxic activity against a panel of human cancer cell lines. The cytotoxic activity of SSK-3 was examined by the DNS assay (Lema et al., Current Cellular Biochemistry 1, 1-14, 2011). Lymphoma/leukemia cell lines, which grow in suspension, were incubated for 48 h with the compounds. Since the adherent cells generally divide at a slower rate than the non-adherent cell lines, the MDA-MB231, HCC1419, T47D, COLO205, PANC-1, A-549 adherent cancer cells lines were incubated for 72 h in the presence of the compounds. After treatment, images were acquired and analyzed to determine percentages of live/dead cells and their cytotoxicity. […] The Hs-27 non-cancerous human foreskin fibroblast cell line was used for comparison purposes.

[3] = Homo sapiens, CCRF-CEM, Initial Screen, DNS assay

| Compound | CC50 (CEM cell line; [3]) [µM] | CC50 (MDA-MB231) [µM] | CC50 at 72 h [1] [µM] | CC50 at 72 h [2] [µM] | other results |
| --- | --- | --- | --- | --- | --- |
| COc1ccc(-c2nn(-c3ccccc3)cc2/C=N/NC(=O)c2n[nH]c3c2CCC3)cc1 [SSK-11] | 3.14 ± 0.33 | – | – | – | – |
| O=C(N/N=C/c1cn(-c2ccccc2)nc1-c1cc2ccccc2oc1=O)c1n[nH]c2c1CCC2 [SSK-12] | 8.25 ± 0.26 | – | – | – | – |
| O=C(N/N=C/c1cn(-c2ccccc2)nc1-c1ccccc1)c1n[nH]c2c1CCC2 [SSK-7] | 8.15 ± 0.23 | – | – | – | – |
| O=C1Nc2ccc(F)cc2/C1=N/NC(=O)c1n[nH]c2c1CCC2 [SSK-2] | > 10 | – | – | – | – |
| O=C(N/N=C/c1ccc(OCc2cn(Cc3ccccc3)nn2)cc1)c1n[nH]c2c1CCC2 [SSK-14] | > 10 | – | – | – | – |
| O=C(N/N=C1\C(=O)N(CN2CCCCC2)c2ccccc21)c1n[nH]c2c1CCC2 [SSK-6] | – | – | – | – | CC50 (CEM cell line; Homo sapiens, CCRF-CEM): > 10 µM |
| Cc1ccc2c(c1)/C(=N/NC(=O)c1n[nH]c3c1CCC3)C(=O)N2 [SSK-4] | – | – | – | – | CC50 (CEM cell line; Initial Screen, DNS assay): 5.02 ± 0.78 µM |
| CCN(CC)c1ccc(/C=N/NC(=O)c2n[nH]c3c2CCC3)cc1 [P3C.4] | – | 2.91 | 2.46 | > 10 | – |
| O=C(N/N=C/c1cc(Br)cc(Br)c1O)c1n[nH]c2c1CCC2 [P3C.6] | – | 2.53 | 5.85 | 9.94 | – |
| O=C(N/N=C/c1ccc(Br)cc1)c1n[nH]c2c1CCC2 [P3C.1] | – | 0.097 | 0.42 | 0.78 | CC50 (Jurkat): 0.39 µM |
| O=C(N/N=C/c1ccccc1Br)c1n[nH]c2c1CCC2 [P3C.5] | – | 9.88 | 6.36 | > 10 | – |
